Data set [1] deals with T1, CAPN5-PC (calpain-5 protease core) (Homo sapiens, UniProt O15484).
T1 sequence (O15484 1-343): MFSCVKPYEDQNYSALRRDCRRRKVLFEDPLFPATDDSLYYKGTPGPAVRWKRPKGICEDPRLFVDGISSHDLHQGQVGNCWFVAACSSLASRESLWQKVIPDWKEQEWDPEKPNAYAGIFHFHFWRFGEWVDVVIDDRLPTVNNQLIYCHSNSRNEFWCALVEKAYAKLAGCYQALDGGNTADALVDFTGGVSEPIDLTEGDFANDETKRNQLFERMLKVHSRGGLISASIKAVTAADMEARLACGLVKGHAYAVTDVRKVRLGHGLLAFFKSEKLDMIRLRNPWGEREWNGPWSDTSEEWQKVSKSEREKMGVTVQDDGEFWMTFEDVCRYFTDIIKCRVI
As to the kind of experiment: inhibition of Ac-LLY-AFC hydrolysis by purified CAPN5-PC. The class given is biochemical.

Substrate in the data set “purified protein”: CC(=O)N[C@@H](CC(C)C)C(=O)N[C@@H](CC(C)C)C(=O)N[C@@H](Cc1ccc(O)cc1)C(=O)Nc1ccc2c(C(F)(F)F)cc(=O)oc2c1
As to the kind of experiment: purified protein. The settings on record: Ca2+ ([…]).

Turning to `CC(C)C[C@H](NC(=O)[C@H]1O[C@@H]1C(=O)O)C(=O)NCCCCN=C(N)N` [E-64], 1200 ± 300 nM corresponded to half-maximal inhibition in data set [1] (IC50).

B1: CAPN5-PC (calpain-5 protease core) (Homo sapiens) (protein)
chain: MFSCVKPYEDQNYSALRRDCRRRKVLFEDPLFPATDDSLYYKGTPGPAVRWKRPKGICEDPRLFVDGISSHDLHQGQVGNCWFVAACSSLASRESLWQKVIPDWKEQEWDPEKPNAYAGIFHFHFWRFGEWVDVVIDDRLPTVNNQLIYCHSNSRNEFWCALVEKAYAKLAGCYQALDGGNTADALVDFTGGVSEPIDLTEGDFANDETKRNQLFERMLKVHSRGGLISASIKAVTAADMEARLACGLVKGHAYAVTDVRKVRLGHGLLAFFKSEKLDMIRLRNPWGEREWNGPWSDTSEEWQKVSKSEREKMGVTVQDDGEFWMTFEDVCRYFTDIIKCRVI
Take B1: the Km in the data set “purified protein” is listed as 153 × 10^2 ± 38 μM.

The record behind these values is article PMC7001764 (Cell reports, 2020).
